Source: ChEMBL document CHEMBL3879881, “Substituted pyrazolyl compounds for the treatment of inflammation” (2005)

These compounds were tested against T1, Inhibitor of nuclear factor kappa-B kinase subunit beta (Homo sapiens, UniProt O14920) (assay: Inhibition of human recombinant C-terminal FLAG-epitope-tagged IKK2 expressed in baculovirus using biotinylated IkappaBalpha peptide as substrate assessed as decrease in [gamma-33P]-ATP incorporation in substrate after 30 mins by scintillation counting method).
T1 sequence (O14920 whole entry): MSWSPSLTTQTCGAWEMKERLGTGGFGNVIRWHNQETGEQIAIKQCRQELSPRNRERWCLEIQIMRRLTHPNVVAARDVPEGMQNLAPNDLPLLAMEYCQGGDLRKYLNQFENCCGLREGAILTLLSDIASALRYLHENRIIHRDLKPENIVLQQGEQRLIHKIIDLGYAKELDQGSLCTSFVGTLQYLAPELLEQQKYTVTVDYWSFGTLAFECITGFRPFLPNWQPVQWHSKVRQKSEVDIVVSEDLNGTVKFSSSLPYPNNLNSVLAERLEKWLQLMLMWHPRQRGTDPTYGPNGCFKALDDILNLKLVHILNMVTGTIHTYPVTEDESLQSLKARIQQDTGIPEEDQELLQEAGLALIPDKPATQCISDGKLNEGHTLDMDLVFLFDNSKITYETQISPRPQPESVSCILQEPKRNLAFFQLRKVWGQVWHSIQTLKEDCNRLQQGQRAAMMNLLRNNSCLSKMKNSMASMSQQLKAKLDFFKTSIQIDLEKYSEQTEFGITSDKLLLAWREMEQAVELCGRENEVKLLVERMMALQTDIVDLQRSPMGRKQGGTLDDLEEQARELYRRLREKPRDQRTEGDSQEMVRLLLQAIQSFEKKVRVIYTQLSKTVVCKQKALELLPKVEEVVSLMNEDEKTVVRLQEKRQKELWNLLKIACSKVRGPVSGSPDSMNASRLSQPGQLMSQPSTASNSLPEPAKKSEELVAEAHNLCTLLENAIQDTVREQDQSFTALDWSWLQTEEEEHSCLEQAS

SMILES	IC50
NC(=O)c1nn(-c2ccc(S(=O)(=O)C(F)(F)F)cc2)c2c1CCc1ccc(N)cc1-2	1000 to 10000 nM
CCCS(=O)(=O)c1ccc(-n2nc(C(N)=O)c3c2-c2cc(NS(C)(=O)=O)ccc2CC3)cc1	1000 to 10000 nM
CN(C)S(=O)(=O)c1ccc(-n2nc(C(N)=O)c3c2-c2cc(NC(=O)c4cccc(Cl)c4)ccc2CC3)cc1	1000 to 10000 nM
CN(C)CCC(=O)Nc1ccc(-n2nc(C(N)=O)c3c2-c2cc(NC(=O)c4ccccc4Cl)ccc2CC3)cc1	1000 to 10000 nM
CS(=O)(=O)c1ccc(-n2nc(C(N)=O)c3c2-c2cc(NC(=O)c4cc(Cl)ncc4Cl)ccc2CC3)cc1	≤ 1000 nM
CC1Cc2c(C(N)=O)nn(-c3ccc(F)cc3)c2-c2cc(NC(=O)c3ccncc3Cl)ccc21 (configuration not stated)	≤ 1000 nM
CC(C)(C)C(=O)ONCCCCC(=O)Nc1ccc(-n2nc(C(N)=O)c3c2-c2cc(NC(=O)c4ccccc4Cl)ccc2CC3)cc1	1000 to 10000 nM
NC(=O)c1nn(-c2cccc(F)c2)c2c1CCc1ccc(NC(=O)c3cccc(Cl)c3F)cc1-2	1000 to 10000 nM
CN1CCN(c2cc(C(=O)Nc3ccc4c(c3)-c3c(c(C(N)=O)nn3-c3ccc(S(C)(=O)=O)cc3)CC4)c(Cl)cn2)CC1	≤ 1000 nM
CC1Cc2c(C(N)=O)nn(-c3ccc(F)cc3F)c2-c2cc(NC(=O)c3ccncc3Cl)ccc21 (configuration not stated)	≤ 1000 nM
NC(=O)c1nn(-c2ccc(F)cc2)c2c1CCc1ccc(NC(=O)c3cc(N4CCN(CCO)CC4)ncc3Cl)cc1-2	≤ 1000 nM
NC(=O)c1nn(-c2ccc3c(c2)OCO3)c2c1CCc1ccc(NC(=O)c3nc(CN4CCOCC4)ccc3Cl)cc1-2	≤ 1000 nM
NC(=O)c1nn(-c2ccc(F)cc2)c2c1CCc1ccc(NC(=O)c3cc(-c4ccncc4)ncc3Cl)cc1-2	≤ 1000 nM
NC(=O)c1nn(-c2ccc(S(=O)(=O)N3CCOCC3)cc2)c2c1CCc1ccc(N)cc1-2	1000 to 10000 nM
CCCS(=O)(=O)c1ccc(-n2nc(C(N)=O)c3c2-c2cc(NC(=O)c4cc(N)ccc4Cl)ccc2CC3)cc1	≤ 1000 nM
CCCS(=O)(=O)c1ccc(-n2nc(C(N)=O)c3c2-c2cc(NC(=O)c4cccnc4Cl)ccc2CC3)cc1	1000 to 10000 nM
CC(=O)c1ccc(-n2nc(C(N)=O)c3c2-c2cc(NC(=O)c4cccnc4Cl)ccc2CC3)cc1	1000 to 10000 nM
NC(=O)c1nn(-c2ccc(F)cc2)c2c1CCc1ccc(NC(=O)c3cc(CCN4CCOCC4)ncc3Cl)cc1-2	≤ 1000 nM
N#Cc1cc(C(=O)Nc2ccc3c(c2)-c2c(c(C(N)=O)nn2-c2ccc(F)cc2)CC3)c(Cl)cn1	≤ 1000 nM
NC(=O)c1nn(-c2ccc3c(c2)OCO3)c2c1CCc1ccc(NC(=O)c3cc(CCN4CCOCC4)ncc3Cl)cc1-2	≤ 1000 nM
NC(=O)c1nn(-c2cc(F)c(N)cc2F)c2c1CCc1ccc(NC(=O)c3ccncc3Cl)cc1-2	≤ 1000 nM
C[S+]([O-])c1ccc(-n2nc(C(N)=O)c3c2-c2cc(NC(=O)c4cccnc4Cl)ccc2CC3)cc1 (configuration not stated)	≤ 1000 nM
NC(=O)c1nn(-c2ccc(NC(=O)c3ccccc3)cc2)c2c1CCc1ccc(NC(=O)c3ccccc3Cl)cc1-2	1000 to 10000 nM
CC1Cc2c(C(N)=O)nn(-c3ccc(F)cc3)c2-c2cc(NC(=O)c3cccnc3Cl)ccc21 (configuration not stated)	≤ 1000 nM

SMILES	IC50
C[S+]([O-])c1ccc(-n2nc(C(N)=O)c3c2-c2cc(NS(C)(=O)=O)ccc2CC3)cc1 (configuration not stated)	1000 to 10000 nM
CCCS(=O)(=O)c1ccc(-n2nc(C(N)=O)c3c2-c2cc(N)ccc2CC3)cc1	1000 to 10000 nM
CCCS(=O)(=O)c1ccc(-n2nc(C(N)=O)c3c2-c2cc(NC(=O)c4cc(NC(=O)OC(C)(C)C)ccc4Cl)ccc2CC3)cc1	1000 to 10000 nM
CSc1ccc(-n2nc(C(N)=O)c3c2-c2cc(NC(=O)c4ccccc4Cl)ccc2CC3)cc1	1000 to 10000 nM
NC(=O)c1nn(-c2ccc(S(=O)(=O)N3CC=CC3)cc2)c2c1CCc1ccc(N)cc1-2	1000 to 10000 nM
C#CCN(CC#C)S(=O)(=O)c1ccc(-n2nc(C(N)=O)c3c2-c2cc(NC(=O)c4ccccc4Cl)ccc2CC3)cc1	1000 to 10000 nM
CN1CC=C(c2cc(C(=O)Nc3ccc4c(c3)-c3c(c(C(N)=O)nn3-c3ccc(F)cc3)CC4)c(Cl)cn2)CC1	≤ 1000 nM
CN(C)CCNS(=O)(=O)c1ccc(-n2nc(C(N)=O)c3c2-c2cc(N)ccc2CC3)cc1	1000 to 10000 nM
NC(=O)c1nn(-c2ccc(F)c(F)c2)c2c1CCc1ccc(NC(=O)c3cccc(Cl)c3Cl)cc1-2	1000 to 10000 nM
CN(C)CCc1cc(C(=O)Nc2ccc3c(c2)-c2c(c(C(N)=O)nn2-c2ccc(F)cc2)CC3)c(Cl)cn1	≤ 1000 nM
CC(=O)Nc1ccc2c(c1)-c1c(c(C(N)=O)nn1-c1ccc(S(=O)(=O)N(C)C)cc1)CC2	1000 to 10000 nM
C=CCN(CC=C)S(=O)(=O)c1ccc(-n2nc(C(N)=O)c3c2-c2cc(NS(C)(=O)=O)ccc2CC3)cc1	1000 to 10000 nM
NC(=O)c1nn(-c2ccc(NC(=O)COCc3ccccc3)cc2)c2c1CCc1ccc(NC(=O)c3ccccc3Cl)cc1-2	1000 to 10000 nM
CNCC(=O)Nc1ccc2c(c1)-c1c(c(C(N)=O)nn1-c1ccc3c(c1)OCO3)CC2	1000 to 10000 nM
CC1Cc2c(C(N)=O)nn(-c3ccc(F)cc3)c2-c2cc(NC(=O)c3cc(N4CCN(C)CC4)ccc3Cl)ccc21 (configuration not stated)	≤ 1000 nM
NC(=O)c1nn(-c2ccc(-n3cccc3)cc2)c2c1CCc1ccc(NC(=O)c3ccccc3Cl)cc1-2	1000 to 10000 nM
C[S+]([O-])c1ccc(-n2nc(C(N)=O)c3c2-c2cc(NC(=O)c4ccncc4Cl)ccc2CC3)cc1 (configuration not stated)	≤ 1000 nM
C[S+]([O-])c1ccc(-n2nc(C(N)=O)c3c2-c2cc(NC(=O)c4ccccc4Cl)ccc2CC3)cc1 (configuration not stated)	≤ 1000 nM
CCS(=O)(=O)c1ccc(-n2nc(C(N)=O)c3c2-c2cc(NS(C)(=O)=O)ccc2CC3)cc1	1000 to 10000 nM
Cc1cc(Cl)ncc1C(=O)Nc1ccc2c(c1)-c1c(c(C(N)=O)nn1-c1ccc3c(c1)OCO3)CC2	≤ 1000 nM
C[S+]([O-])c1ccc(-n2nc(C(N)=O)c3c2-c2cc(NC(=O)c4cc(N)ccc4Cl)ccc2CC3)cc1 (configuration not stated)	≤ 1000 nM
NCc1ccc(Cl)c(C(=O)Nc2ccc3c(c2)-c2c(c(C(N)=O)nn2-c2ccc4c(c2)OCO4)CC3)n1	1000 to 10000 nM
NCc1cc(C(=O)Nc2ccc3c(c2)-c2c(c(C(N)=O)nn2-c2ccc4c(c2)OCO4)CC3)c(Cl)cn1	≤ 1000 nM
CC1Cc2c(C(N)=O)nn(-c3ccc(N)cc3F)c2-c2cc(NC(=O)c3ccncc3Cl)ccc21 (configuration not stated)	≤ 1000 nM

SMILES	IC50
NC(=O)c1nn(-c2ccc(F)cc2)c2c1CCc1ccc(NC(=O)c3cc(CN4CCOCC4)ncc3Cl)cc1-2	≤ 1000 nM
NC(=O)c1nn(-c2ccc3c(c2)OCO3)c2c1CCc1ccc(NC(=O)CNCC3CC3)cc1-2	1000 to 10000 nM
NC(=O)c1nn(-c2ccc(S(=O)(=O)CC3CC3)cc2)c2c1CCc1ccc(NC(=O)c3ccccc3Cl)cc1-2	1000 to 10000 nM
CC(O)c1ccc(-n2nc(C(N)=O)c3c2-c2cc(NC(=O)c4cccnc4Cl)ccc2CC3)cc1 (configuration not stated)	≤ 1000 nM
COc1cccc(-n2nc(C(N)=O)c3c2-c2cc(NC(=O)c4ccccc4Cl)ccc2CC3)c1	1000 to 10000 nM
C[S+]([O-])c1ccc(-n2nc(C(N)=O)c3c2-c2cc(NC(=O)c4cc5c(cc4Cl)OCO5)ccc2CC3)cc1 (configuration not stated)	≤ 1000 nM
NC(=O)c1nn(-c2ccc3c(c2)OCO3)c2c1CCc1ccc(NC(=O)CNC3CCCCC3)cc1-2	1000 to 10000 nM
C#Cc1ccc(-n2nc(C(N)=O)c3c2-c2cc(NC(=O)c4cccnc4Cl)ccc2CC3)cc1	1000 to 10000 nM
NC(=O)c1nn(-c2cc(F)c(N)c(F)c2)c2c1CCc1ccc(NC(=O)c3ccncc3Cl)cc1-2	≤ 1000 nM
NCCCS(=O)(=O)c1ccc(-n2nc(C(N)=O)c3c2-c2cc(NC(=O)c4cccnc4Cl)ccc2CC3)cc1	1000 to 10000 nM
NC(=O)c1nn(-c2ccc(Cl)cc2)c2c1CCc1ccc(NC(=O)c3cnccc3Cl)cc1-2	≤ 1000 nM
N#Cc1cc(C(=O)Nc2ccc3c(c2)-c2c(c(C(N)=O)nn2-c2ccc4c(c2)OCO4)CC3)c(Cl)cn1	≤ 1000 nM
NC(=O)c1nn(-c2ccc(Br)cc2)c2c1CCc1ccc(N)cc1-2	1000 to 10000 nM
NC(=O)c1nn(-c2ccc3c(c2)OCO3)c2c1CCc1ccc(NC(=O)CN3CCCC3)cc1-2	1000 to 10000 nM
NC(=O)c1nn(-c2ccc(NC(=O)c3ccccc3Cl)cc2)c2c1CCc1ccc(NC(=O)c3ccccc3Cl)cc1-2	1000 to 10000 nM
CCS(=O)(=O)c1ccc(-n2nc(C(N)=O)c3c2-c2cc(N)ccc2CC3)cc1	1000 to 10000 nM
N#Cc1ccc(Cl)c(C(=O)Nc2ccc3c(c2)-c2c(c(C(N)=O)nn2-c2ccc4c(c2)OCO4)CC3)n1	1000 to 10000 nM
CN(C)CCNS(=O)(=O)c1ccc(-n2nc(C(N)=O)c3c2-c2cc(NC(=O)c4ccccc4Cl)ccc2CC3)cc1	≤ 1000 nM
CCCCS(=O)(=O)c1ccc(-n2nc(C(N)=O)c3c2-c2cc(NC(=O)c4ccccc4Cl)ccc2CC3)cc1	1000 to 10000 nM
CN(C)CCNc1cc(C(=O)Nc2ccc3c(c2)-c2c(c(C(N)=O)nn2-c2ccc(F)cc2)CC3)c(Cl)cn1	≤ 1000 nM
C[C@@H]1CN(c2cc(C(=O)Nc3ccc4c(c3)-c3c(c(C(N)=O)nn3-c3ccc(F)cc3)CC4)c(Cl)cn2)CCN1	≤ 1000 nM
NC(=O)c1nn(-c2ccc(F)cc2)c2c1CCc1ccc(NC(=O)c3ccnc(N4CCOCC4)c3)cc1-2	≤ 1000 nM
NC(=O)c1nn(-c2ccc(F)cc2)c2c1CCc1ccc(NC(=O)c3cc(N4CCCNCC4)ncc3Cl)cc1-2	≤ 1000 nM
COCCN1CCN(c2cc(C(=O)Nc3ccc4c(c3)-c3c(c(C(N)=O)nn3-c3ccc(F)cc3)CC4)c(Cl)cn2)CC1	≤ 1000 nM
